Source: patent publication US20260184707A1, “PHARMACEUTICAL COMPOUNDS FOR THE TREATMENT OF COMPLEMENT MEDIATED DISORDERS” (ALEXION PHARMACEUTICALS, INC., priority 2022, published 2026)

molecular target: T1, Human complement C1s enzyme (Homo sapiens, UniProt P09871); experiment: Human C1s enzyme assay; format: biochemical; settings: human complement C1s enzyme 1.16 nM, substrate Z-L-Lys-SBzl, A405; read-out: IC50 (Stars)
T1 construct: purified from human serum, Complement Technology, Inc; purchased Complement Technology, Inc; host or cells: human serum (plasma-derived native protein)
T1 sequence (P09871 438-688 limits assumed): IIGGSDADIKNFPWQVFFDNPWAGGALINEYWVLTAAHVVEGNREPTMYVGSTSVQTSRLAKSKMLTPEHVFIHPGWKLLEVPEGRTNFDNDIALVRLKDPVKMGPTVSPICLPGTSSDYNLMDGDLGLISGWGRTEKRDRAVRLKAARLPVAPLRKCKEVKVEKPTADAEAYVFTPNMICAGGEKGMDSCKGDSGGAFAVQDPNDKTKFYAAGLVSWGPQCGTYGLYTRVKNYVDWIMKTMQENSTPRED
T1 sequence (P09871 16-437 partner limits assumed): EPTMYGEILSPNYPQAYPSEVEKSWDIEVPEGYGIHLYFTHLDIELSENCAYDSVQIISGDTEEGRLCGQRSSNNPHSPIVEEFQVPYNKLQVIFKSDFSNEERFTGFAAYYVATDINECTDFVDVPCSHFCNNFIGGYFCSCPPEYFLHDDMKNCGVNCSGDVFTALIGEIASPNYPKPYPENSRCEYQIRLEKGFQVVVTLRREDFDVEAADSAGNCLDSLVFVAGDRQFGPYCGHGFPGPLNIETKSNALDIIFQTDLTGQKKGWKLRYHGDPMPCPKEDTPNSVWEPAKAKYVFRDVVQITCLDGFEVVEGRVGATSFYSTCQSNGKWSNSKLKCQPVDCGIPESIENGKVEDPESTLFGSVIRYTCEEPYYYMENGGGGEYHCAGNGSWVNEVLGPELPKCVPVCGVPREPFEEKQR
Method in brief: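 Serum-purified human C1s (1.16 nM final) preincubated 5 min at room temperature with compound in 50 mM Tris, 1 M NaCl, pH 7.5. Z-L-Lys-SBzl and DTNB added at 100 μM each; A405 recorded every 30 s. IC50 from nonlinear regression of reaction rates versus compound concentration.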

Row | SMILES | IC50
1 | COCC(=O)N1CCN(c2ncc(N[C@H](C)c3ccc4oc5ccccc5c4c3)c(=O)n2CC(=O)NCc2cc3cnccc3[nH]2)CC1 [Compound 482, (R)-N-((1H-pyrrolo[3,2-c]pyridin-2-yl)methyl)-2-(5-((1-(dibenzo[b,d]furan-2-yl)ethyl)-amino)-2-(4-(2-methoxyacet-yl)piperazin-1-yl)-6-oxopyr-imidin-1(6H)-yl)acetamide] | < 0.1 µM
2 | CC(C)c1cnc(N[C@H](C)c2ccc3oc4ccccc4c3c2)c(=O)n1CC(=O)NCc1cc2cnccc2[nH]1 [Compound 442, (R)-N-((1H-pyrrolo[3,2-c]pyridin-2-yl)methyl)-2-(3-((1-(dibenzo[b,d]furan-2-yl)ethyl)-amino)-6-isopropyl-2-oxopyr-azin-1(2H)-yl)acetamide] | < 0.1 µM
3 | C[C@@H](Nc1cnc(C2CC2)n(CC(=O)NCc2cc3cnccc3[nH]2)c1=O)c1ccc2oc3ccccc3c2c1 [Compound 342, (R)-N-((1H-pyrrolo[3,2-c]pyridin-2-yl)methyl)-2-(2-cyclopropyl-5-((1-(dibenzo [b,d]furan-2-yl)ethyl)amino)-6-oxo-pyrimidin-1(6H)-yl)-acetamide] | 0.1 to 1 µM
4 | O=C(Cn1c(N2CCOCC2)cnc(NC(=O)c2coc(-c3ccccc3)n2)c1=O)NCc1cc2cnccc2[nH]1 [Compound 492, N-(4-(2-(((1H-Pyrrolo[3,2-c]pyridine-2-yl)methyl)amino)-2-oxoethyl)-5-morpholino-3-oxo-3,4-dihydropyrazin-2-yl)-2-phenyloxazole-4-carboxamide] | < 0.1 µM
5 | C[C@@H](Nc1cnc(-c2ccccc2)n(CC(=O)NCc2cc(Cl)ccc2-n2cnnn2)c1=O)c1ccc2oc3ccccc3c2c1 [Compound 425, (R)-N-(5-chloro-2-(1H-tetra-zol-1-yl)benzyl)-2-(5-((1-(dibenzo[b,d]furan-2-yl)ethyl)-amino)-6-oxo-2-phenylpyrimi-din-1(6H)-yl)acetamide] | > 1 µM
6 | O=C(Cn1c(-c2ccc(N3CCOCC3)cc2)ncc(NCc2ccc3oc4ccccc4c3c2)c1=O)NCc1cc2cnccc2[nH]1 [Compound 216, N-((1H-pyrrolo[3,2-c]pyridin-2-yl)methyl)-2-(5-((dibenzo [b,d]furan-2-ylmethyl)amino)-2-(4-morpholinophenyl)-6-oxo-pyrimidin-1(6H)-yl)acetamide] | < 0.1 µM
7 | O=C(Cn1c(-c2ccccc2)ncc(NC(=O)c2ccc(-c3ccccc3)s2)c1=O)Nc1nccs1 [Compound 220, N-(6-oxo-1-(2-oxo-2-(thiazol-2-ylamino)ethyl)-2-phenyl-1,6-dihydropyrimidin-5-yl)-5-phen-ylthiophene-2-carboxamide] | < 0.1 µM
8 | C[C@@H](Nc1cnc(N2CCNCC2)n(CC(=O)NCc2cc3cnccc3[nH]2)c1=O)c1ccc2oc3ccccc3c2c1 [Compound 376, (R)—N-((1H-pyrrolo[3,2-c]pyridine-2-yl)methyl)-2-(5-((1-(dibenzo[b,d]furan-2-yl)ethyl)amino)-6-oxo-2-(piperazin-1-yl)pyrimidin-1(6H)-yl)acetamide] | < 0.1 µM
9 | O=C(Cn1c(-c2ccc(O[C@@H]3CO[C@H]4[C@@H]3OC[C@H]4O)cc2)ncc(NC(=O)c2cnc(-c3ccccc3)s2)c1=O)NCc1cc2cnccc2[nH]1 [Compound 263, N-(1-(2-(((1H-pyrrolo[3,2-c]pyridine-2-yl)methyl)amino)-2-oxoethyl)-2-(4-(((3R,3aR,6R,6aR)-6-hydroxyhexahydrofuro[3,2-b]furan-3-yl)oxy)phenyl)-6-oxo-1,6-dihydropyrimidin-5-yl)-2-phenylthiazole-5-carboxamide] | < 0.1 µM
10 | C[C@@H](Nc1cnc(N2CC3CC3C2)n(CC(=O)NCc2cc3cnccc3[nH]2)c1=O)c1ccc2oc3ccccc3c2c1 (stereo partly drawn) [Compound 371, N-((1H-pyrrolo[3,2-c]pyridin-2-yl)methyl)-2-(2-(3-azabicyclo [3.1.0]hexan-3-yl)-5-(((R)-1-(dibenzo[b,d]furan-2-yl)ethyl)-amino)-6-oxopyrimidin-1(6H)-yl)acetamide] | > 1 µM
11 | C[C@@H](Nc1cnc(N2CCCCC2)n(CC(=O)NCc2cc3cnccc3[nH]2)c1=O)c1cnc(-c2ccccc2)s1 [Compound 462, (R)-N-((1H-pyrrolo[3,2-c]pyridin-2-yl)methyl)-2-(6-oxo-5-((1-(2-phenylthiazol-5-yl)ethyl)amino)-2-(piperidin-1-yl)pyrimidin-1(6H)-yl)acet-amide] | < 0.1 µM

Now from value to compound:

Row | IC50 | SMILES
12 | < 0.1 µM | C[C@H](Nc1cnc(-c2ccccc2)n(CC(=O)NCc2cc3cnccc3[nH]2)c1=O)c1ccc(Oc2ccccc2)cc1 [Compound 62, (S)-N-((1H-pyrrolo[3,2-c]pyr-idin-2-yl)methyl)-2-(6-oxo-5-((1-(4-phenoxyphenyl)ethyl)-amino)-2-phenylpyrimidin-1(6H)-yl)acetamide]
13 | < 0.1 µM | COc1cccc(-c2nc(C(=O)Nc3cnc(-c4ccccc4)n(CC(=O)NCc4cc5cnccc5[nH]4)c3=O)co2)c1 [Compound 211, N-(1-(2-(((1H-pyrrolo[3,2-c]pyridine-2-yl)methyl)amino)-2-oxoethyl)-6-oxo-2-phenyl-1,6-dihydropyrimidin-5-yl)-2-(3-methoxyphenyl)oxazole-4-carboxamide]
14 | > 1 µM | Cc1c(NCCCc2ccccc2)ccc(-c2ccccc2)c1CC(=O)NCc1cc2cnccc2[nH]1 [Compound 85, N-((1H-pyrrolo[3,2-c]pyridine-2-yl)methyl)-2-(3-methyl-4-((3-phenylpropyl)amino)-[1,1′-biphenyl]-2-yl)acetamide]
15 | < 0.1 µM | O=C(Cn1c(-c2ccccc2F)ncc(N[C@H](CF)c2ccc3oc4ccccc4c3c2)c1=O)NCc1cc2cnccc2[nH]1 (single isomer, unassigned) [Compound 375, (S*)—N-((1H-pyrrolo[3,2-c]pyridine-2-yl)methyl)-2-(5-((1-(dibenzo[b,d]furan-2-yl)-2-fluoroethyl)amino)-2-(2-fluorophenyl)-6-oxopyrimidin-1(6H)-yl)acetamide]
16 | < 0.1 µM | O=C(Cn1c(-c2ccc(S(F)(F)(F)(F)F)cc2)ncc(NCCCc2ccccc2)c1=O)NCc1cc2cnccc2[nH]1 [Compound 96, N-((1H-pyrrolo[3,2-c]pyridine-2-yl)methyl)-2-(6-oxo-2-(4-(pentafluoro-λ^6-sulfanyl)phenyl)-5-((3-phenylpropyl)amino)pyrimidin-1(6H)-yl)acetamide]
17 | 0.1 to 1 µM | O=C(Cn1c(-c2ccccc2)ncc(Nc2ccc(-c3ccccc3)cc2)c1=O)NCc1cc2cnccc2[nH]1 [Compound 224, N-((1H-pyrrolo[3,2-c]pyridin-2-yl)methyl)-2-(5-([1,1′-biphenyl]-4-ylamino)-6-oxo-2-phenylpyrimidin-1(6H)-yl)-acetamide]
18 | < 0.1 µM | O=C(Cn1c(-c2ccccc2)ncc(NCCCc2ccc(OC(F)F)cc2)c1=O)NCc1cc2cnccc2[nH]1 [Compound 34, N-((1H-pyrrolo[3,2-c]pyridin-2-yl)methyl)-2-(5-((3-(4-(difluoromethoxy)phenyl)prop-yl)amino)-6-oxo-2-phenyl-pyrimidin-1(6H)-yl)acetamide]
19 | < 0.1 µM | C[C@@H](Nc1nnc(-c2ccccc2F)n(CC(=O)NCc2cc3cnccc3[nH]2)c1=O)c1ccc2oc3ccccc3c2c1 [Compound 390, (R)—N-((1H-pyrrolo[3,2-c]pyridine-2-yl)methyl)-2-(6-((1-(dibenzo[b,d]furan-2-yl)ethyl)amino)-3-(2-fluorophenyl)-5-oxo-1,2,4-triazin-4(5H)-yl)acetamide]
20 | < 0.1 µM | CS(=O)(=NC#N)c1ccc(CCCNc2cnc(-c3ccccc3)n(CC(=O)NCc3cc4cnccc4[nH]3)c2=O)cc1 (centres unmarked) [Compound 84, N-((1H-pyrrolo[3,2-c]pyridine-2-yl)methyl)-2-(5-((3-(4-(N-cyano-S-methylsulfonimidoyl)phenyl)propyl)amino)-6-oxo-2-phenylpyrimidin-1(6H)-yl)acetamide]
21 | < 0.1 µM | O=C(Cn1c(-c2ccccc2)ncc(NCCNC(=O)c2ccc3c(c2)-c2ccccc2C3(F)F)c1=O)NCc1cc2cnccc2[nH]1 [Compound 36, N-(2-((1-(2-(((1H-pyrrolo[3,2-c]pyridin-2-yl)methyl)amino)-2-oxoethyl)-6-oxo-2-phenyl-1,6-dihydropyrimidin-5-yl)-amino)ethyl)-9,9-difluoro-9H-fluorene-3-carboxamide]
22 | < 0.1 µM | C[C@@H](Nc1cnc(-c2ccccc2F)n(CC(=O)NCc2cc3cnccc3[nH]2)c1=O)c1ccc(-c2ccccc2F)cc1 [Compound 308, (R)—N-((1H-pyrrolo[3,2-c]pyridine-2-yl)methyl)-2-(5-((1-(2′-fluoro-[1,1′-biphenyl]-4-yl)ethyl)amino)-2-(2-fluorophenyl)-6-oxopyrimidin-1(6H)-yl)acetamide]
23 | < 0.1 µM | CS(=N)(=O)c1ccc(CCCNc2cnc(-c3ccccc3)n(CC(=O)NCc3cc4cnccc4[nH]3)c2=O)cc1 (centres unmarked) [Compound 105, N-((1H-pyrrolo[3,2-c]pyridine-2-yl)methyl)-2-(5-((3-(4-(S-methylsulfonimidoyl)phenyl)propyl)amino)-6-oxo-2-phenylpyrimidin-1(6H)-yl) acetamide]
